# Results published in US11739098B2 (BRISTOL-MYERS SQUIBB COMPANY, priority 2017, dated 2023).
# Legend:
# Assay type in all cases: cell-based
# [1] = molecular target: T1, human TLR8 (Homo sapiens, UniProt Q9NR97); experiment: TLR8 inhibition reporter assay (HEK-Blue cells, SEAP reporter, R848 stimulation); conditions: HEK-Blue cells overexpressing human TLR8, SEAP reporter, R848 15.9 μM
# T1 construct: host or cells: HEK-Blue cells (HEK293-derived reporter line)
# T1 sequence (Q9NR97 27-1041): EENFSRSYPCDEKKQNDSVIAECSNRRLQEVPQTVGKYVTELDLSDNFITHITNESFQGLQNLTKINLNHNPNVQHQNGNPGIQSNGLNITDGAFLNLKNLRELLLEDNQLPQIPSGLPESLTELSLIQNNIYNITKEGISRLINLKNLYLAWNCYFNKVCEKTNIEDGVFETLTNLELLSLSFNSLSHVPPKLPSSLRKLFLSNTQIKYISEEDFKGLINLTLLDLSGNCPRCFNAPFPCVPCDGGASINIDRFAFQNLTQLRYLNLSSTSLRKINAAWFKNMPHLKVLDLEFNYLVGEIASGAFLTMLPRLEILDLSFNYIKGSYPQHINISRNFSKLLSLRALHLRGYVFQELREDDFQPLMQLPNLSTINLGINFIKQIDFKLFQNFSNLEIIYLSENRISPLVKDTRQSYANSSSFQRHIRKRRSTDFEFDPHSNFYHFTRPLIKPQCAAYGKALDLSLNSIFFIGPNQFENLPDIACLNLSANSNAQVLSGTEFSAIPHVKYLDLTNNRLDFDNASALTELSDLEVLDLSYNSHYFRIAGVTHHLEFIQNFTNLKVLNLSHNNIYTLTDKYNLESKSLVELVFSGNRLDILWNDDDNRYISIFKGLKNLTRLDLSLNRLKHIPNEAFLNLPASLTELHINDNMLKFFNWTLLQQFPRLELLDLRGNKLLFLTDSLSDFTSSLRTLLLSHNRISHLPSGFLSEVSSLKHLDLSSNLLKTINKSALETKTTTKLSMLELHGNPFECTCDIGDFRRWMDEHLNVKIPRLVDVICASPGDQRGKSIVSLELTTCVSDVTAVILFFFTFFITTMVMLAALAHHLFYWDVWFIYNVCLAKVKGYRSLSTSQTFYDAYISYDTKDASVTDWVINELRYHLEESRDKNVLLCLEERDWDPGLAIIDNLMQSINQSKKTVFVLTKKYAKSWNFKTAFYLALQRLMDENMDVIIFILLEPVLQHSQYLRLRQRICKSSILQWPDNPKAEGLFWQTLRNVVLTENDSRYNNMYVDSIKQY
# Outline: (§1)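 HEK-Blue cells overexpressing human TLR7, TLR8 or TLR9 (NF-κB/AP-1-driven SEAP) pre-treated 30 min at room temperature with compound (0.05 nM–50 μM), then stimulated with gardiquimod 7.5 μM (TLR7), R848 15.9 μM (TLR8) or ODN2006 5 nM (TLR9). SEAP read colorimetrically after 22 h at 37 °C; % inhibition calculated.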
# [2] = molecular target: T2, human TLR7 (Homo sapiens, UniProt Q9NYK1); experiment: TLR7 inhibition reporter assay (HEK-Blue cells, SEAP reporter, gardiquimod stimulation); conditions: HEK-Blue cells overexpressing human TLR7, SEAP reporter, gardiquimod 7.5 μM
# T2 construct: host or cells: HEK-Blue cells (HEK293-derived reporter line)
# T2 sequence (Q9NYK1 27-1049): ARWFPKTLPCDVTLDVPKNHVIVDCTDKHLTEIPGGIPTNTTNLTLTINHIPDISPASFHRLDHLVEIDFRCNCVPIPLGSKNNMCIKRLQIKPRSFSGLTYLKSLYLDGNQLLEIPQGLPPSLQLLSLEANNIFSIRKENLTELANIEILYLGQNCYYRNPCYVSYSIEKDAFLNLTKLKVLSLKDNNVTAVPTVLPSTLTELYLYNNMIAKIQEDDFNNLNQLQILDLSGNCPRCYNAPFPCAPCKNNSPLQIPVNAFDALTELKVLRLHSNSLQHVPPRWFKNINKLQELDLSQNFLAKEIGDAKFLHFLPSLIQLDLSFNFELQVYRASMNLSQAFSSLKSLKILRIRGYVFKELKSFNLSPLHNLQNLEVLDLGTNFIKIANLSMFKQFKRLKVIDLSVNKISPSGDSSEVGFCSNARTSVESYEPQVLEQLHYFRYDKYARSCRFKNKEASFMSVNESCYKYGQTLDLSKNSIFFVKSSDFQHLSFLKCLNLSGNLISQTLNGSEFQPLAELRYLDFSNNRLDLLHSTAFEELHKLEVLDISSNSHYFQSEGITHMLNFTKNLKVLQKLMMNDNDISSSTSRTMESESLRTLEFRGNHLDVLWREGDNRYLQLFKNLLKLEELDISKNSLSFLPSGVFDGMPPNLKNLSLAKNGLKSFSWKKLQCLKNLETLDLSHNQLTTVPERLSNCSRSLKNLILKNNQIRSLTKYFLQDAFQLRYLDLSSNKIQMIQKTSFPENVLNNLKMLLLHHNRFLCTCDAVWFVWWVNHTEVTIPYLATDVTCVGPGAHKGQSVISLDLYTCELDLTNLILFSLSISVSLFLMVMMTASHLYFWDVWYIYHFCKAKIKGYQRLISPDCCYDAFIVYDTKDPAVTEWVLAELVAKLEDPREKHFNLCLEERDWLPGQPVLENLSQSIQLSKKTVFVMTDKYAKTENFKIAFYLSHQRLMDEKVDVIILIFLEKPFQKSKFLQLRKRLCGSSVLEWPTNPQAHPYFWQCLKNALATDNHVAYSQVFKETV
# Outline: as §1
# [3] = molecular target: T3, human TLR9 (Homo sapiens, UniProt Q9NR96); experiment: TLR9 inhibition reporter assay (HEK-Blue cells, SEAP reporter, ODN2006 stimulation); conditions: HEK-Blue cells overexpressing human TLR9, SEAP reporter, ODN2006 5 nM
# T3 construct: host or cells: HEK-Blue cells (HEK293-derived reporter line)
# T3 sequence (Q9NR96 26-1032): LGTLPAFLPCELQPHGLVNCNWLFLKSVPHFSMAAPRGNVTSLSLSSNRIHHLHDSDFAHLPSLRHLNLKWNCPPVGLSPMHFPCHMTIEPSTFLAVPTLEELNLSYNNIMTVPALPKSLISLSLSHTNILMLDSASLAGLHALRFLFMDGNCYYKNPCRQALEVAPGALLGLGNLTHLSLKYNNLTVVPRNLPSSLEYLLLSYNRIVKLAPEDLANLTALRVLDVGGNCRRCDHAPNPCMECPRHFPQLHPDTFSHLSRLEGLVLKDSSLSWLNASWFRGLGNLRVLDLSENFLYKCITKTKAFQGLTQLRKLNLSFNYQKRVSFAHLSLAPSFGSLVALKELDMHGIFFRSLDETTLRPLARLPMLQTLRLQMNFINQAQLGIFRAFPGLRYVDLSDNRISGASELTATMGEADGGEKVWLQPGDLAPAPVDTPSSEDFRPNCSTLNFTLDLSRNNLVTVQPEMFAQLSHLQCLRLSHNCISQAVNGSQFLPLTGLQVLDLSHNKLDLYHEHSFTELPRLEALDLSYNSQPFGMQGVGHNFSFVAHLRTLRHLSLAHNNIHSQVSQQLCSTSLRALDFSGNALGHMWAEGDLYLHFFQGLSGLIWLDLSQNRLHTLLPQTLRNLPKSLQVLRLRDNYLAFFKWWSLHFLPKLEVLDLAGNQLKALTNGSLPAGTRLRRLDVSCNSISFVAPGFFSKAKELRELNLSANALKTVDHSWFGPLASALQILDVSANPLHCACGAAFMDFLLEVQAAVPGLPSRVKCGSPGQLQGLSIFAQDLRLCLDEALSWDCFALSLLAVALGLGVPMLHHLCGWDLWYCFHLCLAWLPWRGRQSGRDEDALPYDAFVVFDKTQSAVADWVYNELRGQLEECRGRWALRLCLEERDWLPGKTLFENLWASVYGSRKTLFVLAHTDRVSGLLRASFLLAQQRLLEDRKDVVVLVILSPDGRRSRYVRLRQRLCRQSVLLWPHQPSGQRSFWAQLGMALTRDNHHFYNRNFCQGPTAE
# Outline: as §1
IC50 [1],IC50 [2],IC50 [3],Compound
1000 to 50000 nM,1000 to 50000 nM,1000 to 50000 nM,"Cc1nn2ccc(-c3[nH]c4ccc(C5CCNCC5)cc4c3C(C)C)nc2c1F [Example 150, 3-fluoro-5-(3-isopropyl-5-(piperidin-4-yl)-1H-indol-2-yl)-2-methylpyrazolo[1,5-a]pyrimidine]"
< 100 nM,< 100 nM,100 to 1000 nM,"CC(C)c1c(-c2ccnc3[nH]ncc23)[nH]c2ccc(C3CCN(CCN4CCCCCC4)CC3)cc12 [Example 660, 4-(5-(1-(2-(azepan-1-yl)ethyl)piperidin-4-yl)-3-isopropyl-1H-indol-2-yl)-1H-pyrazolo[3,4-b]pyridine]"
< 100 nM,< 100 nM,1000 to 50000 nM,"Cc1cc(-c2[nH]c3ccc(C4CCNCC4)cc3c2C(C)C)cc2cccnc12 [Example 141, 6-(3-isopropyl-5-(piperidin-4-yl)-1H-indol-2-yl)-8-methylquinoline]"
< 100 nM,100 to 1000 nM,1000 to 50000 nM,"CCc1c(-c2ccnc3[nH]ncc23)[nH]c2ccc(C3CCN(Cc4nccs4)CC3)cc12 [Example 929, 2-((4-(3-ethyl-2-(1H-pyrazolo[3,4-b]pyridin-4-yl)-1H-indol-5-yl)piperidin-1-yl)methyl)thiazole]"
< 100 nM,100 to 1000 nM,100 to 1000 nM,"CCc1c(-c2ccnc3[nH]ncc23)[nH]c2ccc(C3CCN(Cc4cnc[nH]4)CC3)cc12 [Example 863, 4-(5-(1-((1H-imidazol-5-yl)methyl)piperidin-4-yl)-3-ethyl-1H-indol-2-yl)-1H-pyrazolo[3,4-b]pyridine]"
1000 to 50000 nM,100 to 1000 nM,1000 to 50000 nM,"CC(C)c1c(-c2cnc3[nH]ccc3c2)[nH]c2ccc(C3CCN(C(=O)CN(C)C)CC3)cc12 [Example 563, 2-(dimethylamino)-1-(4-(3-isopropyl-2-(1H-pyrrolo[2,3-b]pyridin-5-yl)-1H-indol-5-yl)piperidin-1-yl)ethan-1-one]"
< 100 nM,< 100 nM,1000 to 50000 nM,"COc1c(C)c(-c2[nH]c3ccc(C4CCN(CC(=O)N(C)C)CC4)cc3c2C(C)C)nn2ncnc12 [Example 282, 2-(4-(3-isopropyl-2-(8-methoxy-7-methyl-[1,2,4]triazolo[1,5-b]pyridazin-6-yl)-1H-indol-5-yl)piperidin-1-yl)-N,N-dimethylacetamide]"
100 to 1000 nM,100 to 1000 nM,100 to 1000 nM,"Cc1cc(-c2[nH]c3ccc(C4CCN(CC(=O)N(C)C)CC4)cc3c2C(C)C)cc2nccn12 [Example 354, 2-(4-(3-isopropyl-2-(5-methylimidazo[1,2-a]pyridin-7-yl)-1H-indol-5-yl)piperidin-1-yl)-N,N-dimethylacetamide]"
< 100 nM,< 100 nM,1000 to 50000 nM,"Cc1c(-c2ccnc3[nH]ccc23)[nH]c2ccc(C3CCNCC3)cc12 [Example 2, 4-(3-methyl-5-(piperidin-4-yl)-1H-indol-2-yl)-1H-pyrrolo[2,3-b]pyridine]"
< 100 nM,< 100 nM,100 to 1000 nM,"Cc1c(-c2ccnc3[nH]nc(C)c23)[nH]c2ccc(C3CCNCC3)cc12 [Example 218, 3-methyl-4-(3-methyl-5-(piperidin-4-yl)-1H-indol-2-yl)-1H-pyrazolo[3,4-b]pyridine]"
< 100 nM,< 100 nM,100 to 1000 nM,"Cc1nc[nH]c1CN1CCC(c2ccc3[nH]c(-c4ccnc5[nH]nc(C)c45)c(C(C)C)c3c2)CC1 [Example 874, 4-(3-isopropyl-5-(1-((4-methyl-1H-imidazol-5-yl)methyl)piperidin-4-yl)-1H-indol-2-yl)-3-methyl-1H-pyrazolo[3,4-b]pyridine]"
< 100 nM,< 100 nM,1000 to 50000 nM,"Cc1cc2nnnn2cc1-c1[nH]c2ccc(C3CCN(CC(=O)N(C)C)CC3)cc2c1C(C)C [Example 314, 2-(4-(3-isopropyl-2-(7-methyltetrazolo[1,5-a]pyridin-6-yl)-1H-indol-5-yl)piperidin-1-yl)-N,N-dimethylacetamide]"
100 to 1000 nM,100 to 1000 nM,100 to 1000 nM,"COc1cc(-c2[nH]c3ccc(C4CCN(C5COC5)CC4)cc3c2C(C)C)cc2nccn12 [Example 712, 7-(3-isopropyl-5-(1-(oxetan-3-yl)piperidin-4-yl)-1H-indol-2-yl)-5-methoxyimidazo[1,2-a]pyridine]"
< 100 nM,< 100 nM,1000 to 50000 nM,"Cc1cc(-c2[nH]c3ccc(C4CCN(CCS(C)(=O)=O)CC4)cc3c2C(C)C)cn2nnnc12 [Example 789, 6-(3-isopropyl-5-(1-(2-(methylsulfonyl)ethyl)piperidin-4-yl)-1H-indol-2-yl)-8-methyltetrazolo[1,5-a]pyridine]"
< 100 nM,< 100 nM,100 to 1000 nM,"Cc1c(-c2[nH]c3ccc(C4CCNCC4)cc3c2C(C)C)cn2ccnc2c1C [Example 271, 6-(3-isopropyl-5-(piperidin-4-yl)-1H-indol-2-yl)-7,8-dimethylimidazo[1,2-a]pyridine]"
